What was measured:
[1] = molecular target: NACHT, LRR and PYD domains-containing protein 3 (Mus musculus) (UniProt Q8R4B8); assay: Inhibition of NLRP3 inflammasome activation in LPS/ATP-induced C57BL/6 mouse BMDMs assessed as reduction in IL-1beta secretion at 500 nM preincubated with LPS for 4 hrs followed by compound addition for 30 mins and further stimulated with ATP for 30 mins by ELISA relative to control; type: cell-based; conditions: BMDM, time 1.0 hrs
[2] = molecular target: NACHT, LRR and PYD domains-containing protein 3 (Mus musculus) (UniProt Q8R4B8); assay: Inhibition of NLRP3 inflammasome activation in LPS/ATP-induced C57BL/6 mouse BMDMs assessed as reduction in IL-1beta secretion at 200 nM preincubated with LPS for 4 hrs followed by compound addition for 30 mins and further stimulated with ATP for 30 mins by ELISA relative to control; type: cell-based; conditions: BMDM, time 1.0 hrs
[3] = molecular target: NACHT, LRR and PYD domains-containing protein 3 (Mus musculus, UniProt Q8R4B8); assay: Inhibition of NLRP3 inflammasome activation in LPS/ATP-induced C57BL/6 mouse BMDMs assessed as reduction in IL-1beta secretion preincubated with LPS for 4 hrs followed by compound addition for 30 mins and further stimulated with ATP for 30 mins by ELISA; type: cell-based, BMDM
NACHT, LRR and PYD domains-containing protein 3, sequence (Q8R4B8 whole entry, the tested form may be a part): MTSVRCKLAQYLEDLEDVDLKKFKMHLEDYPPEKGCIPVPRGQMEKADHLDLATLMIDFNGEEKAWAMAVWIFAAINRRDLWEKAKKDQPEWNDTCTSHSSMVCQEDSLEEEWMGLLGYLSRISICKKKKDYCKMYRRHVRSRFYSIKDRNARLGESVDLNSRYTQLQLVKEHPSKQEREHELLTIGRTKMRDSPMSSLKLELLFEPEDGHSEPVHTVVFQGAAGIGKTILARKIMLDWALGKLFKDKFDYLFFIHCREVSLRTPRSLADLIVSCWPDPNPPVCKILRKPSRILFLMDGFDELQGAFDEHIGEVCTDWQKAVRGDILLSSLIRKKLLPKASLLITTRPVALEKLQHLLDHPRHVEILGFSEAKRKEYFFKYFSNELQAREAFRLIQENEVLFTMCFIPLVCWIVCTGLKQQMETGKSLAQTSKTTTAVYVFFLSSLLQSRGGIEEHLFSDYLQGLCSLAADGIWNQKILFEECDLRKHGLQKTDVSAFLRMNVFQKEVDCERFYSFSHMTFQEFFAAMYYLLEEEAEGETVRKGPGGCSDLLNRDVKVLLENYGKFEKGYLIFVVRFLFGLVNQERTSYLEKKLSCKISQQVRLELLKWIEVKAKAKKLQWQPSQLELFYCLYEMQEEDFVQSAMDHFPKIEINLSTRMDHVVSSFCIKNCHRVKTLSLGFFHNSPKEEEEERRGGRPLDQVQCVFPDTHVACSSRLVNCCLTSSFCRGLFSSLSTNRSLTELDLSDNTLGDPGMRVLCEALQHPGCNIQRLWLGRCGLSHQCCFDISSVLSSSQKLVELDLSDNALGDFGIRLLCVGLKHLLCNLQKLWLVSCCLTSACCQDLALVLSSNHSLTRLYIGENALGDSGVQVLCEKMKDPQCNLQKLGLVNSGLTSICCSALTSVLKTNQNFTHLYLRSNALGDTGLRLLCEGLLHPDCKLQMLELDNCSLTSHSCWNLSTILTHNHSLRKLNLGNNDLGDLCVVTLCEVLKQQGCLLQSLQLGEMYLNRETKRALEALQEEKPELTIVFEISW

[4] = molecular target: NACHT, LRR and PYD domains-containing protein 3 (Mus musculus) (UniProt Q8R4B8); assay: Inhibition of NLRP3 inflammasome activation in LPS/ATP-induced C57BL/6 mouse BMDMs assessed as reduction in IL-1beta secretion at 100 nM preincubated with LPS for 4 hrs followed by compound addition for 30 mins and further stimulated with ATP for 30 mins by ELISA relative to control; type: cell-based; conditions: BMDM, time 1.0 hrs

NACHT, LRR and PYD domains-containing protein 3 (Mus musculus), sequence (Q8R4B8 whole entry, the tested form may be a part): as above

| SMILES | inhibition [1] [%] | inhibition [2] [%] | IC50 [3] [µM] | inhibition [4] [%] |
| --- | --- | --- | --- | --- |
| C=C1C(=O)[C@]23[C@H](O)[C@H]1CC[C@H]2[C@]12C=CCC(C)(C)[C@H]1[C@H](O)[C@@]3(OCc1nccs1)OC2 | 63.2 | 56.7 | 1.89 | 46.2 |
| C=C1C(=O)[C@]23[C@H](O)[C@H]1CC[C@H]2[C@]12C=CCC(C)(C)[C@H]1[C@H](O)[C@@]3(OCC)OC2 | 66.1 | 46.5 | – | 31.3 |
| C=C1C(=O)[C@]23[C@H](O)[C@H]1CC[C@H]2[C@]12C=CCC(C)(C)[C@H]1[C@H](O)[C@@]3(OCCC(=O)NC)OC2 | 76.7 | 43.1 | 0.216 | 27.2 |
| C=C1C(=O)[C@]23[C@H](O)[C@H]1CC[C@H]2[C@]12C=CCC(C)(C)[C@H]1[C@H](O)[C@@]3(OCCC(=O)N1CCN(C)CC1)OC2 | 85.3 | 60.3 | 0.0985 | 45 |
| C=C1C(=O)[C@]23[C@H](O)[C@H]1CC[C@H]2[C@@]12CO[C@]3(O)[C@@H](O)[C@@H]1C(C)(C)CC[C@@H]2O [ORIDONIN] | 41.2 | 14.3 | 0.78 | 0.2 |
| C=C1C(=O)[C@]23[C@H](O)[C@H]1CC[C@H]2[C@]12C=CCC(C)(C)[C@H]1[C@H](O)[C@@]3(O)OC2 | 64.3 | 45.3 | – | 30.3 |
| C=C1C(=O)[C@]23[C@H](O)[C@H]1CC[C@H]2[C@]12C=CCC(C)(C)[C@H]1[C@H](O)[C@@]3(OCCCc1ccccc1)OC2 | 66.6 | 48.4 | – | 24 |
| C=C1C(=O)[C@]23[C@H](O)[C@H]1CC[C@H]2[C@]12C=CCC(C)(C)[C@H]1[C@H](O)[C@@]3(OCCCc1ccc(Cl)cc1)OC2 | 65 | 47.8 | – | 7.3 |
| C=C1C(=O)[C@]23[C@H](O)[C@H]1CC[C@H]2[C@]12C=CCC(C)(C)[C@H]1[C@H](O)[C@@]3(OCc1ccccc1)OC2 | 88.1 | 70.1 | – | 42.5 |
| C=C1C(=O)[C@]23[C@H](O)[C@H]1CC[C@H]2[C@]12C=CCC(C)(C)[C@H]1[C@H](O)[C@@]3(OCCCCCc1ccccc1)OC2 | 63.1 | 44.6 | – | 13.3 |
| C=C1C(=O)[C@]23[C@H](O)[C@H]1CC[C@H]2[C@]12C=CCC(C)(C)[C@H]1[C@H](O)[C@@]3(OCc1ccc3ccccc3c1)OC2 | 85.7 | 47.5 | – | 35.2 |
| C=C1C(=O)[C@]23[C@H](O)[C@H]1CC[C@H]2[C@]12C=CCC(C)(C)[C@H]1[C@H](O)[C@@]3(OCc1ccc(C#N)cc1)OC2 | 89.2 | 64.7 | – | 38.8 |

The remaining lines, values ahead:

| inhibition [1] [%] | inhibition [2] [%] | IC50 [3] [µM] | inhibition [4] [%] | SMILES |
| --- | --- | --- | --- | --- |
| 85.5 | 68 | – | 45.1 | C=C1C(=O)[C@]23[C@H](OCc4ccccc4)[C@H]1CC[C@H]2[C@]12C=CCC(C)(C)[C@H]1[C@H](O)[C@@]3(O)OC2 |
| 71.4 | 50.2 | – | 33.1 | C=C1C(=O)[C@]23[C@H](OCc4ccc5ccccc5c4)[C@H]1CC[C@H]2[C@]12C=CCC(C)(C)[C@H]1[C@H](O)[C@@]3(O)OC2 |
| 75.5 | 63.3 | – | 40.5 | C=C1C(=O)[C@]23[C@H](O)[C@H]1CC[C@H]2[C@]12C=CCC(C)(C)[C@H]1[C@H](O)[C@@]3(OCc1ccc(Cl)cc1)OC2 |
| 86.6 | 69.6 | – | 31.1 | C=C1C(=O)[C@]23[C@H](OCc4ccc(C#N)cc4)[C@H]1CC[C@H]2[C@]12C=CCC(C)(C)[C@H]1[C@H](O)[C@@]3(O)OC2 |
| 72.4 | 58.7 | – | 44.8 | C=C1C(=O)[C@]23[C@H](OCc4ccc(Cl)cc4)[C@H]1CC[C@H]2[C@]12C=CCC(C)(C)[C@H]1[C@H](O)[C@@]3(O)OC2 |
